In ChEMBL document CHEMBL1201862, “PubChem BioAssay data set” (2004):
Several values for one entry are separate records, joined by “and”; a condition that tells them apart may be missing. Equal values may be shown once.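 Cultured in 96-well plates, cells were exposed to test compound for 48 hours across five concentrations. Abbreviation: GI50, concentration required for 50% inhibition of growth.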 Activity calls are given as the source filed them. Cut-off read from the data, not from the text of the source: active = GI50 up to about 1.1 µM and inactive = higher.

Legend:
Test in all cases: DTP human tumour cell line panel, 48 h
[1] = test system: 786-0
[2] = test system: A498
[3] = test system: A549
[4] = test system: ACHN
[5] = test system: BT-549
[6] = test system: CAKI-1
[7] = test system: CCRF-CEM
[8] = test system: COLO 205
[9] = test system: DU-145
[10] = test system: EKVX
[11] = test system: HCC 2998
[12] = test system: HCT-116
[13] = test system: HCT-15
[14] = test system: HL-60
[15] = test system: HOP-62
[16] = test system: HOP-92
[17] = test system: HT-29
[18] = test system: IGROV-1
[19] = test system: K562
[20] = test system: KM12
[21] = test system: LOX IMVI
[22] = test system: M14
[23] = test system: MCF7
[24] = test system: MDA-MB-231
[25] = test system: MDA-MB-435
[26] = test system: MOLT-4
[27] = test system: NCI-H226
[28] = test system: NCI-H23
[29] = test system: NCI-H460
[30] = test system: NCI-H522
[31] = test system: NCI/ADR-RES
[32] = test system: OVCAR-3
[33] = test system: OVCAR-4
[34] = test system: OVCAR-5
[35] = test system: OVCAR-8
[36] = test system: PC-3
[37] = test system: RPMI-8226
[38] = test system: RXF 393
[39] = test system: SF-268
[40] = test system: SF-295
[41] = test system: SF-539
[42] = test system: SK-MEL-28
[43] = test system: SK-MEL-2
[44] = test system: SK-MEL-5
[45] = test system: SK-OV-3
[46] = test system: SN12C
[47] = test system: SNB-75
[48] = test system: SR
[49] = test system: SW-620
[50] = test system: T47D
[51] = test system: TK-10
[52] = test system: U-251
[53] = test system: UACC-257
[54] = test system: UACC-62
[55] = test system: UO-31
[56] = test system: Malme-3M
[57] = test system: SNB-19
[58] = test system: Hs-578T
[59] = test system: MDA-N

In the case of O=C(/C=C/c1ccc(Cl)c(Cl)c1)CCN1CCN(CCC(=O)/C=C/c2ccc(Cl)c(Cl)c2)CC1, the GI50 [1] is reported as 6.9 µM (inactive), the GI50 [2] is reported as 34.9 µM (inactive) and the GI50 [3] is reported as 30.2 µM (inactive). For the same compound, the GI50 [4] was 16.9 µM (inactive), the GI50 [5] was 24.1 µM (inactive) and the GI50 [6] was 15.6 µM (inactive). The GI50 [7] was 6.59 µM (inactive), the GI50 [8] was 21.8 µM (inactive) and the GI50 [9] was 23.8 µM (inactive). For the same compound, the GI50 [10] was 30.4 µM (inactive), the GI50 [11] was 14.1 µM (inactive) and the GI50 [12] was 7.55 µM (inactive). For the same compound, the GI50 [13] was 13.8 µM, the GI50 [14] was 6.22 µM (inactive) and the GI50 [15] was 21.9 µM (inactive). For the same compound, the GI50 [16] was 22.8 µM (inactive), the GI50 [17] was 17.7 µM (inactive) and the GI50 [18] was 17 µM (inactive). The GI50 [19] was 22.6 µM (inactive), the GI50 [20] was 12.5 µM (inactive) and the GI50 [21] was 13 µM (inactive). The GI50 [22] was 17.8 µM (inactive), the GI50 [23] was 4.04 µM (inactive) and the GI50 [24] was 25 µM (inactive). For the same compound, the GI50 [25] was 21.8 µM (inactive), the GI50 [26] was 22.3 µM (inactive) and the GI50 [27] was 19.7 µM (inactive). For the same compound, the GI50 [28] was > 10 µM (inactive), the GI50 [29] was 17.2 µM (inactive) and the GI50 [30] was 8.13 µM (inactive). The GI50 [31] was 36.9 µM (inactive), the GI50 [32] was 23.6 µM (inactive) and the GI50 [33] was 15.7 µM (inactive). For the same compound, the GI50 [34] was 19.2 µM (inactive), the GI50 [35] was 33.7 µM (inactive) and the GI50 [36] was 20.1 µM (inactive). The GI50 [37] was 3.21 µM (inactive), the GI50 [38] was 20.2 µM (inactive) and the GI50 [39] was 35.4 µM (inactive). The GI50 [40] was 19.7 µM (inactive), the GI50 [41] was 14.4 µM (inactive) and the GI50 [42] was 20.4 µM (inactive). For the same compound, the GI50 [43] was 26.7 µM (inactive), the GI50 [44] was 19.3 µM (inactive) and the GI50 [45] was 45.6 µM (inactive). For the same compound, the GI50 [46] was 26.3 µM (inactive), the GI50 [47] was 31.9 µM (inactive) and the GI50 [48] was 12.3 µM (inactive). For the same compound, the GI50 [49] was 18.2 µM (inactive), the GI50 [50] was 24.8 µM (inactive) and the GI50 [51] was 18 µM (inactive). For the same compound, the GI50 [52] was 13.9 µM (inactive), the GI50 [53] was 33 µM (inactive) and the GI50 [54] was 19.6 µM (inactive). For the same compound, the GI50 [55] was 16.8 µM (inactive).

With CC(C)=CCCC1(C)C2COC(=O)C21 (configuration not stated) the GI50 [1] was > 100 µM (inactive) and 63.2 µM (inactive), the GI50 [2] was > 100 µM (inactive) and the GI50 [4] was > 100 µM (inactive) and 68.9 µM (inactive). For the same compound, the GI50 [5] was > 100 µM (inactive), the GI50 [9] was > 100 µM (inactive) and the GI50 [10] was 67.5 µM (inactive). The GI50 [11] was > 100 µM (inactive), the GI50 [17] was > 100 µM (inactive) and the GI50 [18] was 53.7 µM (inactive). The GI50 [23] was 31.3 µM (inactive) and 33.9 µM (inactive), the GI50 [24] was > 100 µM (inactive) and the GI50 [56] was > 100 µM (inactive). The GI50 [33] was > 100 µM (inactive) and 80 µM (inactive), the GI50 [34] was > 100 µM (inactive) and the GI50 [36] was > 100 µM (inactive). For the same compound, the GI50 [38] was > 100 µM (inactive), the GI50 [39] was > 100 µM (inactive) and the GI50 [40] was > 100 µM (inactive) and 63.2 µM (inactive). The GI50 [42] was > 100 µM (inactive), the GI50 [43] was > 100 µM (inactive) and the GI50 [45] was > 100 µM (inactive). For the same compound, the GI50 [57] was > 100 µM (inactive), the GI50 [49] was 64.7 µM (inactive) and the GI50 [51] was > 100 µM (inactive). For the same compound, the GI50 [53] was > 100 µM (inactive), the GI50 [54] was > 100 µM (inactive) and the GI50 [55] was > 100 µM (inactive).

In the case of NC1CCC[C@@H](O)[C@H]1O (some centres not stated), the GI50 [5] is reported as > 100 µM (inactive), the GI50 [7] is reported as > 100 µM (inactive) and the GI50 [8] is reported as > 100 µM (inactive). The GI50 [18] was > 100 µM (inactive), the GI50 [56] was > 100 µM (inactive) and the GI50 [27] was > 100 µM (inactive). For the same compound, the GI50 [30] was > 100 µM (inactive), the GI50 [41] was > 100 µM (inactive) and the GI50 [57] was > 100 µM (inactive). For the same compound, the GI50 [55] was 76.7 µM (inactive).

With CC(=O)OC12c3ccccc3-c3ccccc3C1C1C(=O)N(C)C(=O)C12Cl (configuration not stated) the GI50 [1] was > 10 µM (inactive), the GI50 [2] was > 10 µM (inactive) and the GI50 [4] was > 10 µM (inactive). For the same compound, the GI50 [6] was > 10 µM (inactive), the GI50 [7] was > 10 µM (inactive) and the GI50 [8] was > 10 µM (inactive). The GI50 [9] was > 10 µM (inactive), the GI50 [10] was > 10 µM (inactive) and the GI50 [11] was > 10 µM (inactive). For the same compound, the GI50 [13] was > 10 µM, the GI50 [14] was > 10 µM (inactive) and the GI50 [15] was > 10 µM (inactive). The GI50 [16] was > 10 µM (inactive), the GI50 [17] was > 10 µM (inactive) and the GI50 [58] was > 10 µM (inactive). The GI50 [18] was > 10 µM (inactive), the GI50 [19] was > 10 µM (inactive) and the GI50 [20] was > 10 µM (inactive). The GI50 [21] was > 10 µM (inactive), the GI50 [22] was > 10 µM (inactive) and the GI50 [23] was > 10 µM (inactive). The GI50 [24] was > 10 µM (inactive), the GI50 [25] was > 10 µM (inactive) and the GI50 [59] was > 10 µM (inactive). The GI50 [26] was > 10 µM (inactive), the GI50 [56] was > 10 µM (inactive) and the GI50 [27] was > 10 µM (inactive). For the same compound, the GI50 [28] was > 10 µM (inactive), the GI50 [29] was > 10 µM (inactive) and the GI50 [30] was > 10 µM (inactive). For the same compound, the GI50 [31] was > 10 µM (inactive), the GI50 [32] was > 10 µM (inactive) and the GI50 [33] was > 10 µM (inactive). For the same compound, the GI50 [34] was > 10 µM (inactive), the GI50 [35] was > 10 µM (inactive) and the GI50 [36] was > 10 µM (inactive). For the same compound, the GI50 [37] was > 10 µM (inactive), the GI50 [38] was > 10 µM (inactive) and the GI50 [39] was > 10 µM (inactive). For the same compound, the GI50 [40] was > 10 µM (inactive), the GI50 [41] was > 10 µM (inactive) and the GI50 [42] was > 10 µM (inactive). For the same compound, the GI50 [43] was > 10 µM (inactive), the GI50 [44] was > 10 µM (inactive) and the GI50 [45] was > 10 µM (inactive). The GI50 [46] was > 10 µM (inactive), the GI50 [57] was > 10 µM (inactive) and the GI50 [47] was > 10 µM (inactive). The GI50 [48] was > 10 µM (inactive), the GI50 [49] was > 10 µM (inactive) and the GI50 [50] was > 10 µM (inactive). For the same compound, the GI50 [51] was > 10 µM (inactive), the GI50 [52] was > 10 µM (inactive) and the GI50 [53] was > 10 µM (inactive). The GI50 [55] was > 10 µM (inactive).
